Reference: PubChem BioAssay (NCI)
Values joined by “and” are separate entries in the source; they are usually repeats but may differ in a detail not shown here. Identical values can stand only once.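 Interpolation was linear, between the two tested concentrations surrounding the appropriate level; five concentrations were tested over 48 hours in 96-well plates. GI50: concentration for 50% inhibition of growth. Definition used: TGI = concentration required for complete inhibition of growth.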

Tests used:
Test in all cases: NCI-60 cell line screen, 48 h
[1] = test system: M14 melanoma
[2] = test system: CCRF-CEM leukemia
[3] = test system: HOP-92 NSCLC
[4] = test system: RXF 393 renal
[5] = test system: SN12C renal
[6] = test system: OVCAR-4 ovarian
[7] = test system: SF-539 CNS
[8] = test system: CAKI-1 renal
[9] = test system: NCI-H226 lung
[10] = test system: HL-60(TB) leukemia
[11] = test system: SK-MEL-5 melanoma
[12] = test system: SF-295 CNS
[13] = test system: HS 578T breast
[14] = test system: HT29 colon
[15] = test system: HCC-2998 colon
[16] = test system: KM12 colon
[17] = test system: MDA-MB-435
[18] = test system: HOP-62 NSCLC
[19] = test system: MCF7 breast
[20] = test system: IGROV1 ovarian
[21] = test system: SF-268 CNS
[22] = test system: SK-MEL-28 melanoma
[23] = test system: OVCAR-3 ovarian
[24] = test system: OVCAR-8 ovarian
[25] = test system: 786-0 renal
[26] = test system: MALME-3M melanoma
[27] = test system: EKVX NSCLC
[28] = test system: UACC-62 melanoma
[29] = test system: ACHN renal
[30] = test system: SK-MEL-2 melanoma
[31] = test system: PC-3 prostate
[32] = test system: SR leukemia
[33] = test system: RPMI-8226 leukemia
[34] = test system: UACC-257 melanoma
[35] = test system: SNB-75 CNS
[36] = test system: HCT-116 colon
[37] = test system: COLO 205 colon
[38] = test system: K-562 leukemia
[39] = test system: A498 renal
[40] = test system: TK-10 renal
[41] = test system: HCT-15 colon
[42] = test system: SNB-19 CNS
[43] = test system: NCI/ADR-RES ovarian
[44] = test system: MOLT-4 leukemia
[45] = test system: LOX IMVI melanoma
[46] = test system: UO-31 renal
[47] = test system: BT-549 breast
[48] = test system: NCI-H460 lung
[49] = test system: SW-620 colon
[50] = test system: A549 NSCLC
[51] = test system: OVCAR-5 ovarian
[52] = test system: DU-145 prostate
[53] = test system: MDA-MB-231 breast
[54] = test system: NCI-H23 lung
[55] = test system: NCI-H522 lung
[56] = test system: SK-OV-3 ovarian
[57] = test system: U251 CNS

Question: What does the source list for `COC(=O)Nc1nc2ccc(C(=O)c3ccccc3)cc2[nH]1`?
Answer: GI50 [1]: 0.427 µM and 0.257 µM; TGI [1]: 6.6 µM; GI50 [2]: 0.398 µM and 0.458 µM; TGI [2]: > 100 µM; TGI [3]: > 85.9 µM; GI50 [4]: 0.368 µM; TGI [4]: 2.19 µM; GI50 [5]: 1.09 µM and 0.62 µM; TGI [5]: > 100 µM; GI50 [6]: 3.88 µM and 3.13 µM; TGI [6]: > 100 µM; GI50 [7]: 0.577 µM and 0.238 µM; GI50 [8]: 0.469 µM and 0.347 µM; TGI [8]: > 100 µM; GI50 [9]: 1.05 µM and 0.441 µM; TGI [9]: 28.9 µM and > 100 µM; GI50 [10]: 0.255 µM and 0.233 µM; TGI [10]: 0.636 µM; GI50 [11]: 0.35 µM and 0.215 µM; TGI [11]: 14 µM and 1.47 µM; GI50 [12]: 0.4 µM and 0.255 µM; TGI [12]: > 60.5 µM; GI50 [13]: 0.518 µM and 0.2 µM; TGI [13]: > 100 µM; GI50 [14]: 0.363 µM and 0.26 µM; TGI [14]: 8.21 µM and 11.2 µM; GI50 [15]: 2.31 µM and 2.13 µM; TGI [15]: > 100 µM; GI50 [16]: 0.402 µM and 0.13 µM; GI50 [17]: 0.178 µM and 0.0343 µM; TGI [17]: 0.485 µM and 0.211 µM; GI50 [18]: 0.61 µM and 3.19 µM; TGI [18]: > 100 µM; GI50 [19]: 0.318 µM and 0.204 µM; TGI [19]: > 100 µM; GI50 [20]: 1.01 µM and 0.565 µM; TGI [20]: > 100 µM and 52.9 µM; GI50 [21]: 1.76 µM and 0.535 µM; TGI [21]: > 100 µM; GI50 [22]: 0.651 µM and 0.464 µM; TGI [22]: > 100 µM; GI50 [23]: 0.324 µM and 0.172 µM; TGI [23]: 0.864 µM and 0.415 µM; GI50 [24]: 0.757 µM and 0.486 µM; TGI [24]: > 100 µM; GI50 [25]: 0.593 µM and 0.72 µM; TGI [25]: > 100 µM; GI50 [26]: 0.559 µM and 0.201 µM; TGI [26]: > 100 µM; TGI [27]: > 100 µM; GI50 [28]: 0.476 µM and 0.463 µM; TGI [28]: > 100 µM; GI50 [29]: 2.23 µM and 1.33 µM; TGI [29]: > 100 µM; GI50 [30]: 0.473 µM and 0.583 µM; TGI [30]: 22.8 µM and > 100 µM; GI50 [31]: 0.405 µM and 0.25 µM; TGI [31]: > 100 µM and 19.1 µM; GI50 [32]: 0.168 µM and 0.0444 µM; TGI [32]: 28.1 µM and > 100 µM; GI50 [33]: 0.903 µM and 0.297 µM; TGI [33]: > 100 µM and 15 µM; GI50 [34]: 38 µM; TGI [34]: > 100 µM; GI50 [35]: 0.256 µM and 0.0866 µM; TGI [35]: > 100 µM and 17 µM; GI50 [36]: 0.47 µM and 0.353 µM; TGI [36]: 50.8 µM and > 36.2 µM; GI50 [37]: 0.331 µM and 0.274 µM; TGI [37]: 1.12 µM and 3.74 µM; GI50 [38]: 0.391 µM and 0.142 µM; TGI [38]: > 56.3 µM; GI50 [39]: 0.314 µM and 0.325 µM; TGI [39]: 8.9 µM and 3.26 µM; TGI [40]: > 100 µM; GI50 [41]: 0.451 µM and 0.21 µM; TGI [41]: > 100 µM; GI50 [42]: 0.587 µM and 0.471 µM; TGI [42]: > 100 µM; GI50 [43]: 0.346 µM and 0.357 µM; GI50 [44]: 0.536 µM and 0.393 µM; TGI [44]: > 45.8 µM; GI50 [45]: 0.625 µM and 0.87 µM; TGI [45]: > 100 µM; TGI [46]: > 100 µM; GI50 [47]: 1.2 µM and 3.27 µM; TGI [47]: > 100 µM and 52.1 µM; GI50 [48]: 0.397 µM and 0.33 µM; GI50 [49]: 0.41 µM and 0.259 µM; TGI [49]: > 100 µM; GI50 [50]: 0.605 µM and 0.534 µM; TGI [50]: > 100 µM; GI50 [51]: 5.38 µM and 2.5 µM; TGI [51]: > 100 µM; GI50 [52]: 1.06 µM and 0.259 µM; TGI [52]: 22.6 µM and 3 µM; GI50 [53]: 1.05 µM and 1.25 µM; TGI [53]: > 100 µM; GI50 [54]: 0.747 µM and 1.13 µM; TGI [54]: > 100 µM; GI50 [55]: 0.317 µM and 0.323 µM; TGI [55]: 2.36 µM; GI50 [56]: 0.435 µM and 0.467 µM; GI50 [57]: 0.5 µM and 0.398 µM; TGI [57]: > 100 µM

Question: What does the source list for `CCCCCC[C@@H](C)NC(=O)c1ccc(Nc2nc3ccccc3c3occc23)cc1`?
Answer: GI50 [1]: 2.23 µM; TGI [1]: 8.3 µM; GI50 [2]: 3.89 µM; TGI [2]: 15.4 µM; GI50 [3]: 1.99 µM; TGI [3]: 7.91 µM; GI50 [4]: 3.41 µM; TGI [4]: 9.84 µM; GI50 [5]: 40.8 µM; TGI [5]: > 100 µM; GI50 [7]: 2.07 µM; TGI [7]: 5.29 µM; GI50 [8]: 2.82 µM; TGI [8]: 28.3 µM; GI50 [10]: 5.14 µM; TGI [10]: > 100 µM; GI50 [11]: 1.66 µM; TGI [11]: 4.01 µM; GI50 [12]: 4.39 µM; TGI [12]: > 100 µM; GI50 [13]: 3.79 µM; TGI [13]: > 100 µM; GI50 [14]: 2.81 µM; TGI [14]: > 100 µM; GI50 [15]: 2.51 µM; TGI [15]: 9.16 µM; GI50 [16]: 38 µM; TGI [16]: > 100 µM; GI50 [17]: 2.98 µM; TGI [17]: > 100 µM; GI50 [18]: 3.28 µM; TGI [18]: 27.7 µM; GI50 [19]: 7.58 µM; TGI [19]: > 100 µM; GI50 [20]: 1.61 µM; TGI [20]: 4.54 µM; GI50 [21]: 5.73 µM; TGI [21]: > 100 µM; GI50 [22]: 5.5 µM; TGI [22]: > 100 µM; GI50 [23]: 2.88 µM; TGI [23]: > 100 µM; GI50 [24]: 3.08 µM; TGI [24]: 16.5 µM; GI50 [25]: 2.9 µM; TGI [25]: 26.3 µM; GI50 [27]: 1.52 µM; TGI [27]: 5.04 µM; GI50 [28]: 32.8 µM; TGI [28]: > 100 µM; GI50 [29]: 24.8 µM; TGI [29]: 91.7 µM; GI50 [30]: 2.51 µM; TGI [30]: 7.23 µM; GI50 [31]: 3.45 µM; TGI [31]: > 100 µM; GI50 [32]: 18.9 µM; TGI [32]: 45.5 µM; GI50 [33]: 3.75 µM; TGI [33]: > 100 µM; GI50 [34]: 2.19 µM; TGI [34]: 5.66 µM; GI50 [35]: 2.25 µM; TGI [35]: 6.38 µM; GI50 [36]: 1.92 µM; TGI [36]: 11.3 µM; GI50 [37]: 3.08 µM; GI50 [38]: 4.82 µM; TGI [38]: > 100 µM; GI50 [39]: 2.4 µM; TGI [39]: 7.54 µM; GI50 [40]: 18.5 µM; TGI [40]: 70.2 µM; GI50 [41]: 8.93 µM; TGI [41]: > 100 µM; GI50 [42]: 5.54 µM; TGI [42]: > 100 µM; GI50 [43]: 2.53 µM; TGI [43]: > 100 µM; GI50 [44]: 3.71 µM; TGI [44]: > 100 µM; GI50 [45]: 19.3 µM; TGI [45]: 42.4 µM; GI50 [46]: 2.87 µM; TGI [46]: 21 µM; GI50 [47]: 2.35 µM; TGI [47]: 7.61 µM; GI50 [48]: 3.87 µM; TGI [48]: > 100 µM; GI50 [49]: 3.38 µM; TGI [49]: > 100 µM; GI50 [50]: 3.17 µM; TGI [50]: > 100 µM; GI50 [51]: 5.72 µM; TGI [51]: > 100 µM; GI50 [52]: 1.92 µM; TGI [52]: 13.2 µM; GI50 [53]: 10.2 µM; TGI [53]: > 100 µM; GI50 [54]: 2.06 µM; TGI [54]: 6.59 µM; GI50 [55]: 1.31 µM; TGI [55]: 4.54 µM; GI50 [56]: 4.25 µM; TGI [56]: > 100 µM; GI50 [57]: 38.8 µM; TGI [57]: > 100 µM
